Experimental data from US7226937B2, “Methods for modulating phototoxicity” (Board of Regents on Behalf of the University of Arizona, priority 2002, dated 2007).

Experiments:
[1] = test system: ΦX174 plasmid; experiment: Suppression of AGE-sensitized DNA (plasmid) cleavage; format: biochemical; details: for suppression of AGE-sensitized plasmid cleavage, in words: as in Table 1
Description: It is well known that ΦX174 plasmid is cleaved only by combined action of irradiation from solar simulated light, and AGE-pigment enriched protein, which acts as a UV sensitizer. AGE-BSA (“advanced glycation end product” modified bovine serum albumin), is a model for accumulation of endogenous skin sensitizers of the type described supra. Details of the assay showing this will be found in Wondrak, et al., Photochem. Photobiol. […] This assay was used in this example.
Plasmid cleavage was visualized by running samples on 1% agarose gels, and damage, i.e., formation of relaxed, open circular forms from closed circular forms (undamaged) were quantified via densitometry, which permitted assessment of the protective effect of a compound.
AGE-cleavage proceeds in the absence of oxygen, and cannot be suppressed fully via antioxidants. As such, if a compound suppresses plasmid cleavage it cannot be simply considered an antioxidant. In contrast, inhibition via quenching of the excited state, as described supra, must be presumed.
Using this assay, a series of proline related compounds and proline were tested. The structures of the compounds are set forth at FIG. 10. FIG. 11, sets forth the results of these experiments. […]

[2] = test system: skin fibroblasts (CF3 cells); experiment: Cell protection against sensitized photodamage (TB plus visible light); format: cell-based, human; details: test compound 10 mM, TB 3.3 μM, visible light 10.8 J/cm^2; for protective effect against sensitized photodamage, in words: CF3 fibroblasts; for Cell Protection against Sensitized Photodamage: ± SD, n = 3, CF3 fibroblasts counted after 3 days
Method: Cultured skin fibroblasts (CF3 cells) were exposed to photooxidative stress from ^1O2 which had formed, in situ, by dye sensitization.
In brief, 50,000 fibroblasts were seeded in a 35 mm culture dish, and then treated one day later with visible light (90 seconds exposure, providing 10.8 J/cm^2) in the presence or absence of TB (3.3 μM in Hanks buffered salt solution). Five minutes after treatment, cells were washed, with phosphate buffered saline. Test compound (10 mM) was present or absent in the culture during the radiation. After 3 days of cultivation, cells were harvested via trypsinization, and counted using a Coulter counter.
Protection was determined via the formula: […]

[3] = test system: HaCaT keratinocytes; experiment: Proliferation inhibition of HaCaT keratinocytes with or without light; format: cell-based; details: for cell proliferation relative to a control (antiproliferative effect): 500 μM compound, HaCaT keratinocytes, no light or UVA 3.3 J/cm^2, 3 days after stimulation
Method: (§1) A series of experiments were carried out on HaCaT keratinocytes, and human CF3 fibroblasts. In these experiments, cell samples were contacted with 500 μM of pyridinoline, 500 μM of desmosine, which is an elastin constituent with a structure related to pyridinoline, or 500 μM of vitamin B6 (pyridoxine). Controls received no added compound. In one set of experiments, the cells received no external light source. In another set of experiments, they received UVA light, at 3.3 J/cm^2. The CF3 fibroblasts received solar simulated light, or “SSL,” which combines 2.3 J/cm^2 of UVA light, and 0.12 J/cm^2 of UVB light. Results are shown, in FIG. 2, in terms of percent of cell proliferation relative to a control (no added compound, no light). The measurements were taken 3 days after stimulation.
HaCaT cells, as described supra, were tested in a proliferation inhibition assay. Cell samples received equal amounts of one of the 4 compounds listed supra and were contacted with or without either solar simulated light (“SSL”) as described, supra, or UVA light alone, also as described supra.
The antiproliferative effect of the complexes described in example 4 were tested, by adding either nothing (control), BSA, or the BSA-B6 complexes, and treating or not treating samples of HaCaT keratinocytes with SSL. The BSA and BSA-B6 were added at 10 mg/ml, and the SSL was 2.3 J/cm^2 of UVA plus 0.12 J/cm^2 UVB. Three days after treatment, proliferation was measured using a Coulter counter, and standard methods.

[4] = test system: human CF3 fibroblasts; experiment: Proliferation inhibition of CF3 fibroblasts with or without solar simulated light; format: cell-based; details: 500 μM compound, no light or SSL (2.3 J/cm^2 UVA, 0.12 J/cm^2 UVB), 3 days after stimulation
Method: as §1

[5] = mixture of TB and L-Pro in PBS; visible light 36 J/cm^2

N[C@@H](Cc1c[nH]cn1)C(=O)O [L-Histidine]
% Inhibition (±SD) of AGE-sensitized DNA cleavage ([1]; 20 mM): 43.7 ± 0.4%

COC(=O)[C@@H]1CCCN1 [L-Pro-OCH3]
quenching of photosensitized DNA damage (plasmid cleavage) ([1]; test compound 100 mM, UVA 2.3 J/cm^2, AGE-BSA 10 mg/ml): most potent of the quenchers | protective effect against sensitized photodamage, in words [2]: very clear protective effect | Cell Protection against Sensitized Photodamage [2]: 83.8 ± 10.9%

C1CN2CCN1CC2 [DABCO]
% Inhibition (±SD) of AGE-sensitized DNA cleavage ([1]; 20 mM): 32.9 ± 1.1%

[N-]=[N+]=[N-].[Na+] [NaN3]
% Inhibition (±SD) of AGE-sensitized DNA cleavage ([1]; 20 mM): 94.0 ± 0.5% | suppression of AGE-sensitized plasmid cleavage, in words [1]: effective

CC(C)(S)[C@@H](N)C(=O)O [D-Penicillamine, D-penicillamine]
% Inhibition (±SD) of AGE-sensitized DNA cleavage ([1]; 20 mM): 95.7 ± 0.7% | suppression of AGE-sensitized plasmid cleavage, in words [1]: effective

Catalase
% Inhibition (±SD) of AGE-sensitized DNA cleavage ([1]; 400 u/mL): 57.5 ± 4.7% | effect of catalase on vitamin B6 sensitization ([3]; catalase added at 400 μ/ml, cell type not stated): absolutely no effect

N[C@@H](CC[C@@H](O)C[n+]1cc(O)c(C[C@H](N)C(=O)O)c(CC[C@H](N)C(=O)O)c1)C(=O)[O-] [pyridinoline]
cell proliferation relative to a control (antiproliferative effect) [3]: antiproliferative effect, but only in the presence of light | cell proliferation relative to a control (antiproliferative effect) [4]: antiproliferative effect, but only in the presence of light

O=C(O)[C@@H]1CCCN1 [L-Pro, proline]
Cell Protection against Sensitized Photodamage [2]: 6.2 ± 5.4% | change in HPLC peak, retention time or AUC after light exposure (inertness toward 1O2) [5]: No changes were observed

CC(=O)N[C@@H](CS)C(=O)O [NAC, N-acetyl-L-cysteine]
% Inhibition (±SD) of AGE-sensitized DNA cleavage ([1]; 20 mM): 99.4 ± 0.9% | suppression of AGE-sensitized plasmid cleavage, in words [1]: effective

O=C(O)[C@@H]1CC(O)CN1 (stereo partly drawn) [4-OH-L-Pro, 4-hydroxy-L-proline]
Cell Protection against Sensitized Photodamage [2]: 7.3 ± 2.5%

Oc1cccnc1 [3-hydroxypyridine]
type of light in whose presence the compound functioned ([3]; HaCaT cells, SSL or UVA alone): functioned in the presence of UVB light as a cell proliferation inhibitor | effect on HaCaT cells in proliferation inhibition assay, compared to controls ([3]; equal amounts of compound, with or without SSL or UVA light): inhibitory effect

OC[C@@H](O)[C@@H](O)[C@H](O)[C@H](O)CO [Mannitol]
% Inhibition (±SD) of AGE-sensitized DNA cleavage ([1]; 20 mM): 47.5 ± 2.5%

COC(=O)[C@@H]1CC(O)CN1 (stereo partly drawn) [4-OH-L-Pro-OCH3, 4-OH-L-proline methyl ester]
protective effect against sensitized photodamage, in words [2]: very clear protective effect | Cell Protection against Sensitized Photodamage [2]: 71.0 ± 13.4%

CC(=O)N(O)CCCCCNC(=O)CCC(=O)N(O)CCCCCNC(=O)CCC(=O)N(O)CCCCCN [DFO]
% Inhibition (±SD) of AGE-sensitized DNA cleavage ([1]; 1 mM): 51.3 ± 1.0%

Cc1ncc(CO)c(CO)c1O [Vitamin B6, pyridoxine]
cell proliferation relative to a control (antiproliferative effect) [3]: dramatically more efficacy in inhibiting the cellular proliferation | cell proliferation relative to a control (antiproliferative effect) [4]: dramatically more efficacy in inhibiting the cellular proliferation

N[C@@H](CCC(=O)N[C@@H](CS)C(=O)NCC(=O)O)C(=O)O [GSH, glutathione]
% Inhibition (±SD) of AGE-sensitized DNA cleavage ([1]; 20 mM): 100.0 ± 0.0% | suppression of AGE-sensitized plasmid cleavage, in words [1]: effective
